From US9550078B2, “EDAR ligand derived peptides and use thereof” (CAREGEN CO., LTD., priority 2011, dated 2017)
Where no end group is shown, it is not given here.

Experiments:
Format in all cases: cell-based
NIH3T3 fibroblasts = experiment: SRB colorimetric assay of cell growth; conditions: 1, 10 and 50 μg/ml, 72 hr, absorbance at 590 nm
Method: In order to evaluate three peptides prepared in Preparation Example 1 whether they have similar activities of growth factor, SRB (Sulforhodamine B; Sigma-Aldrich) colorimetric assay was carried out using HaCaT kerationcytes (Korean Cell Line Bank) and NIH3T3 fibroblasts (Korean Cell Line Bank) according to Rizzino et al. method (Rizzino, et al. Cancer Res., 48: 4266 (1988)).
HaCaT ketatinocytes and NIH3T3 fibroblasts were cultured in 250 ml-flasks containing EMEM (Eagle's minimal essential media; Gibco, USA) supplemented with 10% FBS (fetal bovine serum; Sigma). Cells cultured were treated with 1% trypsin solution to detach cells from the bottom of culture flasks and centrifuged to collect cell pellets. After cells were resuspended in EMEM not containing FBS, its aliquot (3×10^3 cells) was added to each well of 96-well plates and cultured under 5% CO2 for 24 hr at 37° C. After 24-hr culture, the medium was changed with a fresh medium without serum and cells were incubated with empty sample (for normalization) and peptides synthesized aseptically dissolved in […] distilled water with the respective concentrations of 1 μg/ml, 10 μg/ml and 50 μg/ml for 72 hr under the same conditions as described above. After removing supernatants, cells were fixed with ethanol and then washed three times using PBS (phosphate buffered saline), followed by incubation with SRB solution. Cells were sufficiently washed with 1% acetic acid and observed under a microscope to find living cell condition. In addition, absorbance at 590 nm was measured to analyze cell viability.

NF-κB = experiment: Western blot of NF-κB translocation into nucleus; conditions: HaCaT keratinocytes, 20 min
Method: (§1) HaCaT kerationcytes were incubated with the peptides synthesized in preparation Example 1 for 20 min. The translocation of NF-κB into nucleus through the phosphorylation of IκB was examined as a representative signaling of EDA protein. The respective effect was measured by Western blot analysis using an antibody against IκB and NF-κB (SantaCruz, USA). The effect of IκB degradation through phosphorylation and uniquitination in a concentration dependent manner of the treated peptides of this invention was confirmed (FIGS. 3a and 3b). Furthermore, the activation and nucleus translocation of NF-κB was also observed after degradation of IκB (FIGS. 4a and 4b). […] The expression levels of the above mentioned proteins of IL-1b, IL-6, and COX-2 were increased with the translocations of NF-κB into nucleus which is induced by the treatments of the peptides.

Shh protein = experiment: Western blot of Shh protein expression; conditions: keratinocytes, 10 μg/ml, 24 hr
Method: To verify whether the peptides synthesized in preparation Example 1 enhances the expression of Shh protein which is known as EDA1 target molecule and to stimulate the hair follicle, kerationcytes (3×10^5 cells) was added to each well of 96-well plates and cultured under 5% CO2 for 24 hr at 37° C. After 24-hr culture, the medium was changed with a fresh medium without serum and cells were treated with empty sample (for normalization) and peptides synthesized aseptically dissolved in distilled water with the concentration of 10 μg/ml and cultured for 24 hr under the same conditions as described above. After that, the cell culture was collected and the expression level of Shh was measured through Western blotting using the specific antibody to Shh protein.

IκB = experiment: Western blot of IκB degradation (EDA1-EDAR signal); conditions: HaCaT keratinocytes, 20 min
Method: as §1

IL-1b, IL-6, and COX-2 = experiment: RT-PCR of NF-κB-induced genes; conditions: HaCaT keratinocytes
Method: as §1

| Sequence | growth of fibroblasts (NIH3T3 fibroblasts) | growth of fibroblasts (NIH3T3 fibroblasts; listed as SEQ ID NO:2) | translocation of NF-κB into nucleus (NF-κB) | expression of Shh protein (Shh protein) | cellular amount of IκB protein (degradation through phosphorylation and ubiquitination) (IκB) | expression of COX-2, IL-6, IL-1b (IL-1b, IL-6, and COX-2) | growth of fibroblasts (NIH3T3 fibroblasts; listed as SEQ ID NO:1) |
| --- | --- | --- | --- | --- | --- | --- | --- |
| LLADTTHHRPWT [compound 2] | notably increases | stimulatory effect | translocation of NF-κB into nucleus after activation | remarkably enhanced | reduced | remarkably enhanced | – |
| NMSKHTTFFGA | notably increases | – | translocation of NF-κB into nucleus after activation | remarkably enhanced | reduced | remarkably enhanced | stimulatory effect |
